# System: human JAK1 (a.a. 837-1142)
# Experiment: In vitro JAK kinase assay (HTRF), JAK1
# Assay type: biochemical
# Conditions: ratio of IC50s, 1 mM ATP
# Description: Compounds herein were tested for inhibitory activity of JAK targets according to the following in vitro assay described in Park et al., Analytical Biochemistry 1999, 269, 94-104. The catalytic domains of human JAK1 (a.a. 837-1142), JAK2 (a.a. 828-1132) and JAK3 (a.a. 781-1124) were expressed using baculovirus in insect cells and purified. The catalytic activity of JAK1, JAK2 or JAK3 was assayed by measuring the phosphorylation of a biotinylated peptide. The phosphorylated peptide was detected by homogenous time resolved fluorescence (HTRF). IC50s of compounds were measured for each kinase in the 40 μL reactions that contain the enzyme, ATP and 500 nM peptide in 50 mM Tris (pH 7.8) buffer with 100 mM NaCl, 5 mM DTT, and 0.1 mg/mL (0.01%) BSA. For the 1 mM IC50 measurements, ATP concentration in the reactions was 1 mM. Reactions were carried out at room temperature for 1 hour and then stopped with 20 μL 45 mM EDTA, 300 nM SA-APC, 6 nM Eu-Py20 in assay buffer (Perkin Elmer, Boston, Mass.). Binding to the Europium labeled antibody took place for 40 minutes and HTRF signal was measured on a PHERA star plate reader (BMG, Cary, N.C.). The Example compounds were each tested in the Example A assay (see Table 1 for data for the compounds of the examples as tested by the assay of Example A at 1 mM ATP).
row,SMILES,JAK2/JAK1
1,"C[C@@H](O)c1nc2cnc3ccsc3c2n1C1CCNCC1F (stereo partly drawn) [9 (2nd peak), (1R)-1-[1-(3-Fluoropiperidin-4-yl)-1H-imidazo[4,5-d]thieno[3,2-b]pyridin-2-yl]ethanol]",>10
2,"CNC(C)c1nc2cnc3ccsc3c2n1[C@H]1CC[C@H](CC#N)OC1 (stereo partly drawn) [Example 70, ((2R,5S)-5-{2-[1-(Methylamino)ethyl]-1H-imidazo[4,5-d]thieno[3,2-b]pyridin-1-yl}tetrahydro-2H-pyran-2-yl)acetonitrile]",>10
3,"Cc1nc2cnc3ccsc3c2n1[C@H]1CC[C@H](CC#N)CC1 [Example 48, [trans-4-(2-Methyl-1H-imidazo[4,5-d]thieno[3,2-b]pyridin-1-yl)cyclohexyl]acetonitrile]",>7
4,"C[C@@H](O)c1nc2cnc3ccsc3c2n1[C@H]1CC[C@@H](CC#N)OC1 [Example 21, ((2S,5S)-5-{2-[(1R)-1-Hydroxyethyl]-1H-imidazo[4,5-d]thieno[3,2-b]pyridin-1-yl}tetrahydro-2H-pyran-2-yl)acetonitrile]",>10
5,"C[C@@H](O)c1nc2cnc3ccsc3c2n1C1CCC(O)(CC#N)CC1 (single isomer, unassigned) [24 (second peak)]",>10
6,"C[C@@H](O)c1nc2cnc3ccsc3c2n1C1CCC(NCCC#N)CC1 (single isomer, unassigned) [30 (first peak)]",>2
7,"CS(=O)(=O)NCc1nc2cnc3ccsc3c2n1[C@H]1CC2CCC1C2 (stereo partly drawn) [Example 22, N-((1-((2S)-Bicyclo[2.2.1]heptan-2-yl)-1H-imidazo[4,5-d]thieno[3,2-b]pyridin-2-yl)methyl)methanesulfonamide]",>4
8,"N#CCc1nc2cnc3ccsc3c2n1[C@H]1CC[C@@H](CC#N)OC1 [Example 74, {(2S,5S)-5-[2-(Cyanomethyl)-1H-imidazo[4,5-d]thieno[3,2-b]pyridin-1-yl]tetrahydro-2H-pyran-2-yl}acetonitrile]",>10
9,"C[C@@H](O)c1nc2cnc3ccsc3c2n1[C@H]1CCN(CCCCC#N)C1 [Example 66, 5-((3S)-3-{2-[(1R)-1-Hydroxyethyl]-1H-imidazo[4,5-d]thieno[3,2-b]pyridin-1-yl}pyrrolidin-1-yl)pentanenitrile]",>10
10,"C[C@@H](O)c1nc2cnc3ccsc3c2n1[C@@H]1CC[C@@H](CC#N)OC1 [Example 44, ((2S,5R)-5-{2-[(1R)-1-Hydroxyethyl]-1H-imidazo[4,5-d]thieno[3,2-b]pyridin-1-yl}tetrahydro-2H-pyran-2-yl)acetonitrile]",>10
11,"C[C@@H](O)c1nc2cnc3ccsc3c2n1[C@H]1CC[C@H](CO)CC1 [Example 11, (1R)-1-{1-[trans-4-(Hydroxymethyl)cyclohexyl]-1H-imidazo[4,5-d]thieno[3,2-b]pyridin-2-yl}ethanol]",>10
12,"C[C@@H](O)c1nc2cnc3ccsc3c2n1C1CCN(CC(F)(F)F)CC1 [Example 15, (1R)-1-{1-[1-(2,2,2-Trifluoroethyl)piperidin-4-yl]-1H-imidazo[4,5-d]thieno[3,2-b]pyridin-2-yl}ethanol]",>9
13,"C[C@@H](O)c1nc2cnc3ccsc3c2n1[C@H]1CC[C@H](O)CC1 [Example 3, trans-4-{2-[(1R)-1-Hydroxyethyl]-1Z-imidazo[4,5-d]thieno[3,2-b]pyridin-1-yl}cyclohexanol]",>10
14,"C[C@@H](O)c1nc2cnc3ccsc3c2n1C1CCCCC1 [Example 13, (1R)-1-(1-Cyclohexyl-1H-imidazo[4,5-d]thieno[3,2-b]pyridin-2-yl)ethanol]",>10
15,"C[C@@H](O)c1nc2cnc3ccsc3c2n1[C@H]1CC[C@H](CCC#N)CC1 [Example 8, 3-(trans-4-{2-[(1R)-1-Hydroxyethyl]-1H-imidazo[4,5-d]thieno[3,2-b]pyridin-1-yl}cyclohexyl)propanenitrile]",>10
16,"N#CCc1nc2cnc3ccsc3c2n1[C@H]1CC[C@H](CC#N)CC1 [Example 90, {1-[trans-4-(Cyanomethyl)cyclohexyl]-1H-imidazo[4,5-d]thieno[3,2-b]pyridin-2-yl}acetonitrile]",>10
17,"CC(C)c1nc2cnc3ccsc3c2n1[C@H]1CC[C@H](CC#N)CC1 [Example 27, [trans-4-(2-Isopropyl-1H-imidazo[4,5-d]thieno[3,2-b]pyridin-1-yl)cyclohexyl]acetonitrile]",>10
18,"C[C@@H](O)c1nc2cnc3ccsc3c2n1[C@H]1CC[C@H](CCS(C)(=O)=O)CC1 [Example 5, (1R)-1-(1-{trans-4-[2-(Methylsulfonyl)ethyl]cyclohexyl}-1H-imidazo[4,5-d]thieno[3,2-b]pyridin-2-yl)ethanol]",>10

row,SMILES,JAK2/JAK1
1,"CCc1nc2cnc3ccsc3c2n1[C@H]1CC[C@H](CC#N)CC1 [Example 47, [trans-4-(2-Ethyl-1H-imidazo[4,5-d]thieno[3,2-b]pyridin-1-yl)cyclohexyl]acetonitrile]",>10
2,"COC(=O)NC[C@H]1CC[C@H](n2c(CC#N)nc3cnc4ccsc4c32)CC1 [Example 86, Methyl ({trans-4-[2-(cyanomethyl)-1H-imidazo[4,5-d]thieno[3,2-b]pyridin-1-yl]cyclohexyl}methyl)carbamate]",>10
3,"Cc1nn2cnc3ccsc3c2c1-c1ccc(CC#N)cc1 [Example 46, [4-(8-Methylpyrazolo[1,5-c]thieno[2,3-e]pyrimidin-9-yl)phenyl]acetonitrile]",>3
4,"C[C@@H](O)c1nc2cnc3ccsc3c2n1C1CCC(O)(CC#N)CC1 (single isomer, unassigned) [24 (first peak)]",>10
5,"CN1CC(c2nc3cnc4ccsc4c3n2[C@H]2CC[C@H](CC#N)CC2)C1 [Example 29, {trans-4-[2-(1-Methylazetidin-3-yl)-1H-imidazo[4,5-d]thieno[3,2-b]pyridin-1-yl]cyclohexyl}acetonitrile]",>9
6,"Cc1nc2cnc3ccsc3n2c1-c1ccc(CC#N)cc1 [Example 33, [4-(7-Methylimidazo[1,2-a]thieno[3,2-e]pyrazin-8-yl)phenyl]acetonitrile]",>7
7,"CCOC(=O)NC[C@H]1CC[C@H](n2c([C@@H](C)O)nc3cnc4ccsc4c32)CC1 [Example 82, Ethyl [(trans-4-{2-[(1R)-1-hydroxyethyl]-1H-imidazo[4,5-d]thieno[3,2-b]pyridin-1-yl}cyclohexyl)methyl]carbamate]",>10
8,"CCOC(=O)NC[C@H]1CC[C@H](n2c(CC#N)nc3cnc4ccsc4c32)CC1 [Example 87, Ethyl ({trans-4-[2-(cyanomethyl)-1H-imidazo[4,5-d]thieno[3,2-b]pyridin-1-yl]cyclohexyl}methyl)carbamate]",>10
9,"C[C@@H](O)c1nc2cnc3ccsc3c2n1[C@H]1CCN(CCCC(F)(F)F)C1 [Example 64, (1R)-1-{1-[(3S)-1-(4,4,4-Trifluorobutyl)pyrrolidin-3-yl]-1H-imidazo[4,5-d]thieno[3,2-b]pyridin-2-yl}ethanol]",>10
10,"C[C@@H](O)c1nc2cnc3ccsc3c2n1[C@H]1CCCOC1 [Example 1, (1R)-1-{1-[(3S)-Tetrahydro-2H-pyran-3-yl]-1H-imidazo[4,5-d]thieno[3,2-b]pyridin-2-yl}ethanol]",>3
11,"C[C@@H](O)c1nc2cnc3ccsc3c2n1[C@H]1CCCN(C(=O)CCCC#N)C1 [Example 59, 5-((3S)-3-{2-[(1R)-1-Hydroxyethyl]-1H-imidazo[4,5-d]thieno[3,2-b]pyridin-1-yl}piperidin-1-yl)-5-oxopentanenitrile]",>10
12,"N#CCC1CCC(CO)(n2cnc3cnc4ccsc4c32)CC1 (single isomer, unassigned) [72 (second peak), [4-(Hydroxymethyl)-4-(1H-imidazo[4,5-d]thieno[3,2-b]pyridin-1-yl)cyclohexyl]acetonitrile]",>5
13,"CNS(=O)(=O)C[C@H]1CC[C@H](n2c([C@@H](C)O)nc3cnc4ccsc4c32)CC1 [Example 14, 1-(trans-4-{2-[(1R)-1-hydroxyethyl]-1H-imidazo[4,5-d]thieno[3,2-b]pyridin-1-yl}cyclohexyl)-N-methylmethanesulfonamide]",>5
14,"C[C@@H](O)c1nc2cnc3ccsc3c2n1[C@H]1CC[C@H](CF)CC1 [Example 12, (1R)-1-{1-[trans-4-(Fluoromethyl)cyclohexyl]-1H-imidazo[4,5-d]thieno[3,2-b]pyridin-2-yl}ethanol]",>10
15,"C[C@@H](O)c1nc2cnc3ccsc3c2n1[C@H]1CC[C@H](CNS(C)(=O)=O)OC1 [Example 75, N-[((2R,5S)-5-{2-[(1R)-1-Hydroxyethyl]-1H-imidazo[4,5-d]thieno[3,2-b]pyridin-1-yl}tetrahydro-2H-pyran-2-yl)methyl]methanesulfonamide]",>10
16,"C[C@@H](O)c1nc2cnc3ccsc3c2n1C1CCCC(CCC#N)C1 (stereo partly drawn) [Example 32, 3-(3-{2-[(1R)-1-Hydroxyethyl]-1H-imidazo[4,5-d]thieno[3,2-b]pyridin-1-yl}cyclohexyl)propanenitrile]",>10
17,"N#CC[C@H]1CC[C@H](n2c(C3CC3)nc3cnc4ccsc4c32)CC1 [Example 26, [trans-4-(2-Cyclopropyl-1H-imidazo[4,5-d]thieno[3,2-b]pyridin-1-yl)cyclohexyl]acetonitrile]",>10

# From patent US11161855B2, “Tricyclic fused thiophene derivatives as JAK inhibitors” (Incyte Corporation, priority 2012, dated 2021)
